Test results: patent US20070213326A1, “SUBSTITUTED INDOLE COMPOUNDS AND THEIR USE AS 5-HT6 RECEPTOR MODULATORS” (LABORATORIOS DEL DR. ESTEVE S.A., priority 2004, published 2007)
pKi: −log10 of the molar value. Where a name gives a salt, the structure may show the parent alone.

What was measured:
[1] = molecular target: T1, 5HT6-human recombinant receptor (Homo sapiens, UniProt P50406); experiment: Binding to serotonin receptor 5-HT6 ([H]-LSD radioligand, HEK-293 cell membranes); conditions: membranes of HEK-293 cells expressing 5HT6-human recombinant receptor; [H]-LSD 2.7 nM; 60 minutes at 37° C.
T1 construct: purchased Receptor Biology; host or cells: HEK-293 cells (membranes)
Protocol: I) Binding to Serotonin Receptor 5-HT6
Cell membranes of HEK-293 cells expressing the 5HT6-human recombinant receptor were supplied by Receptor Biology. In said membranes the receptor concentration is 2.18 pmol/mg protein and the protein concentration is 9.17 mg/ml. The experimental protocol follows the method of B. L. Roth et al. [B. L. Roth, S. C. Craigo, M. S. Choudhary, A. Uluer, F. J. Monsma, Y. Shen, H. Y. Meltzer, D. R. Sibley: Binding of Typical and Atypical Antipsychotic Agents to 5-Hydroxytryptamine-6 and Hydroxytryptamine-7 Receptors. The Journal of Pharmacology and Experimental Therapeutics, 1994, 268, 1403] with the following slight changes. The respective part of the literature description is hereby incorporated by reference and forms part of the disclosure.
The commercial membrane is diluted (1:40 dilution) with the binding buffer: 50 mM Tris-HCl, 10 mM MgCl2, 0.5 mM EDTA (pH 7.4). The radioligand used is [H]-LSD at a concentration of 2.7 nM with a final volume of 200 μl. Incubation is initiated by adding 100 μl of membrane suspension, (≈22.9 μg membrane protein), and is prolonged for 60 minutes at a temperature of 37° C. The incubation is ended by fast filtration in a Brandel Cell Harvester through fiber glass filters made by Schleicher & Schuell G F 3362 pretreated with a solution of polyethylenimine at 0.5%. The filters are washed three times with three milliliters of buffer Tris-HCl 50 mM pH 7.4. The filters are transferred to flasks and 5 ml of Ecoscint H liquid scintillation cocktail are added to each flask. The flasks are allowed to reach equilibrium for several hours before counting with a Wallac Winspectral 1414 scintillation counter. Non-specific binding is determined in the presence of 100 μM of serotonin. Tests were made in triplicate. The inhibition constants (Ki, nM) were calculated by non-linear regression analysis using the program EBDA/LIGAND described in Munson and Rodbard, Analytical Biochemistry, 1980, 107, 220, the respective part of which is hereby incorporated by reference and forms part of the disclosure.
The binding of the substituted indole compounds to the 5-HT6 receptor was determined as described above.

T1 sequence (P50406 whole entry): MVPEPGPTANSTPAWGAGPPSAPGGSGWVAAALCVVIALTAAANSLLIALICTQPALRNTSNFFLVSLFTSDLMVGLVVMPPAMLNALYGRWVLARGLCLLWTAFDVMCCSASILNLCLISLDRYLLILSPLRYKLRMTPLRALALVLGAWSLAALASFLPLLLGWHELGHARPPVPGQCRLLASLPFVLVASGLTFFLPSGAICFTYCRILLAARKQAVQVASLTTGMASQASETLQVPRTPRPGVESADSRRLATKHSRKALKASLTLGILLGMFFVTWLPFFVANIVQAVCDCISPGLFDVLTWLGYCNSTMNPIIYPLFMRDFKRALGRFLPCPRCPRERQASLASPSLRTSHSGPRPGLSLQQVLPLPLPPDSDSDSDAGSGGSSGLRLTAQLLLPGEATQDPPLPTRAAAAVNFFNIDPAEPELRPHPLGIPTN

melting point	SMILES	pKi [1]
78 to 82 °C	CN(C)CCc1c[nH]c2cccc(NS(=O)(=O)c3ccc(Oc4ccccc4)cc3)c12	–
170 to 172 °C	CN(C)CCc1c[nH]c2cccc(NS(=O)(=O)CCc3cccc4ccccc34)c12 (as salt: TFA)	–
86 to 90 °C	CCN(CC)CCc1c[nH]c2cc(NS(=O)(=O)c3cccc4c(Cl)cccc34)ccc12	–
96 to 98 °C	CN(C)CCc1c[nH]c2cc(NS(=O)(=O)c3cc(Cl)cc(Cl)c3)ccc12	–
170 to 171 °C	CN(C)CCc1c[nH]c2cc(NS(=O)(=O)c3ccc(Oc4ccccc4)cc3)ccc12	–
212 to 215 °C	CN(C)CCc1c[nH]c2cccc(NS(=O)(=O)c3cc(Cl)cc(Cl)c3)c12	–
165 to 168 °C	CN(C)CCc1c[nH]c2cccc(NS(=O)(=O)c3ccc4ccccc4c3)c12	–
210 °C	CN(C)CCc1c[nH]c2cc(N(S(=O)(=O)c3c(Cl)nc4sccn34)S(=O)(=O)c3c(Cl)nc4sccn34)ccc12	–
200 to 205 °C	CCN(CC)CCc1c[nH]c2cc(NS(=O)(=O)c3cc(Cl)c(Cl)s3)ccc12	–
155 to 156 °C	CCOC(CN(CC)CC)c1c[nH]c2c(N(S(=O)(=O)c3sc4ccc(Cl)cc4c3C)S(=O)(=O)c3sc4ccc(Cl)cc4c3C)cccc12 (stereo not shown)	–
79 to 84 °C	CCN(CC)CCc1c[nH]c2c(NS(=O)(=O)c3sc4ccc(Cl)cc4c3C)cccc12	–
235 to 236 °C	Cc1c(S(=O)(=O)Nc2cccc3[nH]cc(CCN(C)C)c23)sc2ccc(Cl)cc12	–
216 °C	CN(C)CCc1c[nH]c2cccc(NS(=O)(=O)c3c(Cl)nc4sccn34)c12	–
146 to 147 °C	CCN(CC)CCc1c[nH]c2cc(NS(=O)(=O)c3ccc4ccccc4c3)ccc12	–
111 to 114 °C	CN(C)CCc1c[nH]c2cc(NS(=O)(=O)c3cc(Cl)c(Cl)s3)ccc12	–
223 to 225 °C	CN(C)CCc1c[nH]c2cccc(NS(=O)(=O)c3cccc4ccccc34)c12	–

melting point	SMILES	pKi [1]
187 to 190 °C	CN(C)CCc1c[nH]c2cc(NS(=O)(=O)c3cccc4c(Cl)cccc34)ccc12	–
145 °C	CCOC(CN(C)C)c1c[nH]c2c(NS(=O)(=O)c3sc4ccc(Cl)cc4c3C)cccc12 (stereo not shown)	–
103 to 107 °C	CN(C)CCc1c[nH]c2cc(N(S(=O)(=O)c3cc(Cl)cc(Cl)c3)S(=O)(=O)c3cc(Cl)cc(Cl)c3)ccc12	–
81 to 85 °C	CCN(CC)CCc1c[nH]c2cc(NS(=O)(=O)c3ccc(-c4ccccc4)cc3)ccc12	–
182 to 184 °C	CN(C)CCc1c[nH]c2cccc(NS(=O)(=O)c3ccc(-c4ccccc4)cc3)c12	–
198 to 200 °C	CN(C)CCc1c[nH]c2cccc(NS(=O)(=O)c3ccc4c(Cl)cccc4c3)c12	–
130 to 140 °C	Cc1c(S(=O)(=O)Nc2cccc3c(CCN(C)C)c[nH]c23)sc2ccc(Cl)cc12	–
50 to 53 °C	CCN(CC)CCc1c[nH]c2cc(NS(=O)(=O)c3ccc(Oc4ccccc4)cc3)ccc12	–
208 °C	CCOC(CN(C)C)c1c[nH]c2cc(N(S(=O)(=O)c3sc4ccc(Cl)cc4c3C)S(=O)(=O)c3sc4ccc(Cl)cc4c3C)ccc12 (stereo not shown)	–
183 to 187 °C	CCN(CC)CCc1c[nH]c2cc(NS(=O)(=O)c3cccc4ccccc34)ccc12	–
164 to 168 °C	CN(C)CCc1c[nH]c2cc(NS(=O)(=O)c3ccc(-c4ccccc4)cc3)ccc12	–
79 to 85 °C	CCN(CC)CCc1c[nH]c2cc(NS(=O)(=O)c3cc(Cl)cc(Cl)c3)ccc12	–
187 to 188 °C	CN(C)CCc1c[nH]c2cc(N(S(=O)(=O)c3cc(Cl)c(Cl)s3)S(=O)(=O)c3cc(Cl)c(Cl)s3)ccc12	–
110 to 120 °C	Cc1c(S(=O)(=O)N(c2cccc3c(CCN(C)C)c[nH]c23)S(=O)(=O)c2sc3ccc(Cl)cc3c2C)sc2ccc(Cl)cc12	–
87 to 90 °C	CCN(CC)CCc1c[nH]c2c(N(S(=O)(=O)c3sc4ccc(Cl)cc4c3C)S(=O)(=O)c3sc4ccc(Cl)cc4c3C)cccc12	–
90 °C	CN(C)CCc1c[nH]c2cc(NS(=O)(=O)CCc3cccc4ccccc34)ccc12	–

SMILES	melting point	pKi [1]
CCN(CC)CCc1c[nH]c2cc(NS(=O)(=O)c3c(Cl)nc4sccn34)ccc12 [Example 4, 6-chloro-N-(3-(2-(diethylamino)ethyl)-1H-indol-6-yl)imidazo[2,1-b]thiazole-5-sulfonamide]	210 to 212 °C	7.37
CN(C)CCc1c[nH]c2cc(NS(=O)(=O)c3c(Cl)nc4sccn34)ccc12 [Example 13, 6-chloro-N-(3-(2-(dimethylamino)ethyl)-1H-indol-6-yl)imidazo[2,1-b]thiazole-5-sulfonamide]	138 to 142 °C	8.14
CN(C)CCc1c[nH]c2cc(NS(=O)(=O)c3cccc4ccccc34)ccc12 [Example 12, N-(3-(2-(dimethylamino)ethyl)-1H-indol-6-yl)naphthalene-1-sulfonamide]	167 to 168 °C	7.51
CN(C)CCc1c[nH]c2cc(NS(=O)(=O)c3ccc4ccccc4c3)ccc12 [Example 11, N-(3-(2-(dimethylamino)ethyl)-1H-indol-6-yl)naphthalene-2-sulfonamide]	150 to 151 °C	7.37
